For experiment [1] the following is noted: cited from earlier work; for lower threshold for an initial dosage resulting in production of analgesia: naive human adult.
For experiment [2] the following is noted: P=0.033; of borderline clinical significance.

SMILES strings stand for the structures. Read-outs that look alike come from different tables or passages of the source.

`CN1CC[C@]23c4c5ccc(O)c4O[C@H]2[C@@H](O)C=C[C@H]3[C@H]1C5` [Morphine, morphine]: the figures for the “lower threshold for an initial dosage resulting in production of analgesia” value in experiment [1] (intravenous route) and in experiment [1] (oral route) were 4-5 mg every four hours and 30 mg every four hours, respectively. For the same compound, the “difference mean, pre-treatment VAS greater than steady-state VAS” value in experiment [2] is reported as 1.2 cm.

Consider `COc1ccc2c3c1O[C@H]1C(=O)CC[C@@]4(O)[C@@H](C2)N(C)CC[C@]314` [oxycodone], for which the “analgesic potency relative to morphine (as a function of mass of dose)” value in experiment [1] (in vivo) is “about 1.5 times”. For the same compound, the “lower threshold for an initial dosage resulting in production of analgesia” value in experiment [1] (oral route) was 10 mg every four hours.

The values are drawn from patent US8182837B2, “Methods and compositions for reducing the risk associated with the administration of opioid analgesics in patients with diagnosed or undiagnosed respiratory illness” (QRxPharma Limited, priority 2003, dated 2012).
